# System: ZnT8_186–194-reactive CD8^+ T-cell clones
# Format: cell-based, human
# Settings: MMr co-staining (Fig. 7D) and in-vitro recall (Fig. 7E); clones D222D 2, D349D 178B9, H017N A1, H328C 9C8
sequence,measurement,value
KAANIVLTV [B. stercoris mimotope],ZnT8_186–194-reactive clones cross-recognizing the mimotope,1 of 4
